Each compound was assayed against human Gal-3 (hGal-3) (Homo sapiens (Human), UniProt P17931) (assay: competitive binding assay: binding of biotinylated hGal-3 to microplate-adsorbed asialofetuin (ASF), spectrophotometric). Conditions: Activity on hGal-3; mean values of several measurements.
Method: Evaluation of Compound Inhibitory Activity (IC50)
The inhibitory activity of compounds is determined in competitive binding assays. This spectrophotometric assay measures the binding of biotinylated human Gal-3 (hGal-3) or human Gal-1 (hGal-1), respectively, to a microplate-adsorbed glycoprotein, asialofetuin (ASF) (Proc Natl Acad Sci USA. 2013 Mar. 26; 110(13):5052-7.). Alternatively, and preferably, a human Gal-1 version in which all six cysteines are substituted by serines may be used.
Briefly, compounds are serially diluted in DMSO (working dilutions). ASF-coated 384 well plates are supplemented with 22.8 μL/well of biotinylated hGal-3 or hGal-1 in assay buffer (i.e. 300-1000 ng/mL biotinylated hGal-3 or hGal-1) to which 1.2 μL of compound working dilutions are added and mixed.
Plates are incubated for 3 hours at 4° C., then washed with cold assay buffer (3×50 uL), incubated for 1 hour with 25 μL/well of a streptavidin-peroxidase solution (diluted in assay buffer to 80 ng/mL) at 4° C., followed by further washing steps with assay buffer (3×50 uL). Finally, 25 μL/well of ABTS substrate is added.
The calculated IC50 values may fluctuate depending on the daily assay performance. Fluctuations of this kind are known to those skilled in the art. IC50 values from several measurements are given as mean values.

Chain of human Gal-3 (hGal-3) (P17931 whole entry): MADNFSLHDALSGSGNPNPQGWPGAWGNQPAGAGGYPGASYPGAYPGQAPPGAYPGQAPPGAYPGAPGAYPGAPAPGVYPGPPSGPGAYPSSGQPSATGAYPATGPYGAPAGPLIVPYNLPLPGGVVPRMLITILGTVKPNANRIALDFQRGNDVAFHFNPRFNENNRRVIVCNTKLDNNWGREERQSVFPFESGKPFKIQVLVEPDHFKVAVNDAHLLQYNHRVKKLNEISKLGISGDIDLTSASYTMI

IC50 [nM] | SMILES
25.4 | COc1cc(-c2cn([C@H]3[C@@H](O)[C@@H](CO)O[C@@H](C(=O)N(c4cc(Br)cc(C#N)c4)[C@H]4CCC[C@@H]4O)[C@@H]3OC)nn2)cc(F)c1F [Example 1.3.5, (2R,3R,4S,5R,6R)-N-(3-bromo-5-cyanophenyl)-4-(4-(3,4-difluoro-5-methoxyphenyl)-1H-1,2,3-triazol-1-yl)-5-hydroxy-N-((1S,2S)-2-hydroxycyclopentyl)-6-(hydroxymethyl)-3-methoxytetrahydro-2H-pyran-2-carboxamide]
28.8 | COc1cc(-c2cn([C@H]3[C@@H](O)[C@@H](CO)O[C@@H](C(=O)N(c4cc(Br)cc(Br)c4)[C@H]4CCC[C@@H]4O)[C@@H]3OC)nn2)cc(F)c1F [Example 1.3.11, (2R,3R,4S,5R,6R)-N-(3,5-dibromophenyl)-4-(4-(3,4-difluoro-5-methoxyphenyl)-1H-1,2,3-triazol-1-yl)-5-hydroxy-N-((1S,2S)-2-hydroxycyclopentyl)-6-(hydroxymethyl)-3-methoxytetrahydro-2H-pyran-2-carboxamide]
44.8 | CO[C@@H]1[C@@H](n2cc(-c3cc(F)c(C)c(F)c3)nn2)[C@@H](O)[C@@H](CO)O[C@H]1C(=O)N(c1cc(Cl)cc(Cl)c1)[C@H]1CCC[C@@H]1O [Example 1.4.2, (2R,3R,4S,5R,6R)-N-(3,5-dichlorophenyl)-4-(4-(3,5-difluoro-4-methylphenyl)-1H-1,2,3-triazol-1-yl)-5-hydroxy-N-((1S,2S)-2-hydroxycyclopentyl)-6-(hydroxymethyl)-3-methoxytetrahydro-2H-pyran-2-carboxamide]
74.8 | CO[C@@H]1[C@@H](n2cc(-c3cc(F)c(C)c(F)c3)nn2)[C@@H](O)[C@@H](CO)O[C@H]1C(=O)N(c1cc(Cl)cc(C#N)c1)[C@@H]1CCC[C@H]1O [Example 1.4.4R, (2R,3R,4S,5R,6R)-N-(3-chloro-5-cyanophenyl)-4-(4-(3,5-difluoro-4-methylphenyl)-1H-1,2,3-triazol-1-yl)-5-hydroxy-N-((1R,2R)-2-hydroxycyclopentyl)-6-(hydroxymethyl)-3-methoxytetrahydro-2H-pyran-2-carboxamide]
36.7 | CO[C@@H]1[C@@H](n2cc(-c3cc(F)c(Cl)c(F)c3)nn2)[C@@H](O)[C@@H](CO)O[C@H]1C(=O)N(c1cc(Cl)cc(C#N)c1)[C@H]1CCC[C@@H]1O [Example 1.5.4, (2R,3R,4S,5R,6R)-4-(4-(4-chloro-3,5-difluorophenyl)-1H-1,2,3-triazol-1-yl)-N-(3-chloro-5-cyanophenyl)-5-hydroxy-N-((1S,2S)-2-hydroxycyclopentyl)-6-(hydroxymethyl)-3-methoxytetrahydro-2H-pyran-2-carboxamide]
33.9 | CO[C@@H]1[C@@H](n2cc(-c3cc(F)c(Cl)c(F)c3)nn2)[C@@H](O)[C@@H](CO)O[C@H]1C(=O)N(c1cc(Br)cc(C#N)c1)[C@H]1CCC[C@@H]1O [Example 1.5.5, (2R,3R,4S,5R,6R)-N-(3-bromo-5-cyanophenyl)-4-(4-(4-chloro-3,5-difluorophenyl)-1H-1,2,3-triazol-1-yl)-5-hydroxy-N-((1S,2S)-2-hydroxycyclopentyl)-6-(hydroxymethyl)-3-methoxytetrahydro-2H-pyran-2-carboxamide]
214 | CO[C@@H]1[C@@H](n2cc(-c3cc(F)c(Br)c(F)c3)nn2)[C@@H](O)[C@@H](CO)O[C@H]1C(=O)N(c1cc(Cl)cc(C#N)c1)[C@@H]1CCC[C@H]1O [Example 1.6.4R, (2R,3R,4S,5R,6R)-4-(4-(4-bromo-3,5-difluorophenyl)-1H-1,2,3-triazol-1-yl)-N-(3-chloro-5-cyanophenyl)-5-hydroxy-N-((1R,2R)-2-hydroxycyclopentyl)-6-(hydroxymethyl)-3-methoxytetrahydro-2H-pyran-2-carboxamide]
103 | CO[C@@H]1[C@@H](n2cc(-c3cc(F)c(F)c(Cl)c3)nn2)[C@@H](O)[C@@H](CO)O[C@H]1C(=O)N(c1cc(Cl)cc(C#N)c1)[C@@H]1CCC[C@H]1O [Example 1.7.4R, (2R,3R,4S,5R,6R)-4-(4-(3-chloro-4,5-difluorophenyl)-1H-1,2,3-triazol-1-yl)-N-(3-chloro-5-cyanophenyl)-5-hydroxy-N-((1R,2R)-2-hydroxycyclopentyl)-6-(hydroxymethyl)-3-methoxytetrahydro-2H-pyran-2-carboxamide]
21.2 | CO[C@@H]1[C@@H](n2cc(-c3cc(F)c(F)c(Cl)c3)nn2)[C@@H](O)[C@@H](CO)O[C@H]1C(=O)N(c1cc(Br)cc(C#N)c1)[C@H]1CCC[C@@H]1O [Example 1.7.5, (2R,3R,4S,5R,6R)-N-(3-bromo-5-cyanophenyl)-4-(4-(3-chloro-4,5-difluorophenyl)-1H-1,2,3-triazol-1-yl)-5-hydroxy-N-((1S,2S)-2-hydroxycyclopentyl)-6-(hydroxymethyl)-3-methoxytetrahydro-2H-pyran-2-carboxamide]

The next lines start with the compound.

SMILES | IC50 [nM]
COc1cc(-c2cn([C@H]3[C@@H](O)[C@@H](CO)O[C@@H](C(=O)N(c4cc(Br)cc(Br)c4)[C@@H]4CCC[C@H]4O)[C@@H]3OC)nn2)cc(F)c1F [Example 1.3.11R, (2R,3R,4S,5R,6R)—N-(3,5-dibromophenyl)-4-(4-(3,4-difluoro-5-methoxyphenyl)-1H-1,2,3-triazol-1-yl)-5-hydroxy-N-((1R,2R)-2-hydroxycyclopentyl)-6-(hydroxymethyl)-3-methoxytetrahydro-2H-pyran-2-carboxamide] | 277
COc1cc(-c2cn([C@H]3[C@@H](O)[C@@H](CO)O[C@@H](C(=O)N(c4cc(C)cc(Br)c4)[C@H]4CCC[C@@H]4O)[C@@H]3OC)nn2)cc(F)c1F [Example 1.3.12, (2R,3R,4S,5R,6R)-N-(3-bromo-5-methylphenyl)-4-(4-(3,4-difluoro-5-methoxyphenyl)-1H-1,2,3-triazol-1-yl)-5-hydroxy-N-((1S,2S)-2-hydroxycyclopentyl)-6-(hydroxymethyl)-3-methoxytetrahydro-2H-pyran-2-carboxamide] | 42.1
COc1cc(-c2cn([C@H]3[C@@H](O)[C@@H](CO)O[C@@H](C(=O)N(c4cc(C)cc(Br)c4)[C@@H]4CCC[C@H]4O)[C@@H]3OC)nn2)cc(F)c1F [Example 1.3.12R, (2R,3R,4S,5R,6R)-N-(3-bromo-5-methylphenyl)-4-(4-(3,4-difluoro-5-methoxyphenyl)-1H-1,2,3-triazol-1-yl)-5-hydroxy-N-((1R,2R)-2-hydroxycyclopentyl)-6-(hydroxymethyl)-3-methoxytetrahydro-2H-pyran-2-carboxamide] | 411
CO[C@@H]1[C@@H](n2cc(-c3cc(F)c(C)c(F)c3)nn2)[C@@H](O)[C@@H](CO)O[C@H]1C(=O)N(c1cc(Cl)cc(C#N)c1)[C@H]1CCC[C@@H]1O [Example 1.4.4, (2R,3R,4S,5R,6R)-N-(3-chloro-5-cyanophenyl)-4-(4-(3,5-difluoro-4-methylphenyl)-1H-1,2,3-triazol-1-yl)-5-hydroxy-N-((1S,2S)-2-hydroxycyclopentyl)-6-(hydroxymethyl)-3-methoxytetrahydro-2H-pyran-2-carboxamide] | 17.3
CO[C@@H]1[C@@H](n2cc(-c3cc(F)c(C)c(F)c3)nn2)[C@@H](O)[C@@H](CO)O[C@H]1C(=O)N(c1cc(Br)cc(C#N)c1)[C@H]1CCC[C@@H]1O [Example 1.4.5, (2R,3R,4S,5R,6R)-N-(3-bromo-5-cyanophenyl)-4-(4-(3,5-difluoro-4-methylphenyl)-1H-1,2,3-triazol-1-yl)-5-hydroxy-N-((1S,2S)-2-hydroxycyclopentyl)-6-(hydroxymethyl)-3-methoxytetrahydro-2H-pyran-2-carboxamide] | 16.9
CO[C@@H]1[C@@H](n2cc(-c3cc(F)c(Cl)c(F)c3)nn2)[C@@H](O)[C@@H](CO)O[C@H]1C(=O)N(c1cc(Cl)cc(C#N)c1)[C@@H]1CCC[C@H]1O [Example 1.5.4R, (2R,3R,4S,5R,6R)-4-(4-(4-chloro-3,5-difluorophenyl)-1H-1,2,3-triazol-1-yl)-N-(3-chloro-5-cyanophenyl)-5-hydroxy-N-((1R,2R)-2-hydroxycyclopentyl)-6-(hydroxymethyl)-3-methoxytetrahydro-2H-pyran-2-carboxamide] | 153
CO[C@@H]1[C@@H](n2cc(-c3cc(F)c(Br)c(F)c3)nn2)[C@@H](O)[C@@H](CO)O[C@H]1C(=O)N(c1cc(Cl)cc(C#N)c1)[C@H]1CCC[C@@H]1O [Example 1.6.4, (2R,3R,4S,5R,6R)-4-(4-(4-bromo-3,5-difluorophenyl)-1H-1,2,3-triazol-1-yl)-N-(3-chloro-5-cyanophenyl)-5-hydroxy-N-((1S,2S)-2-hydroxycyclopentyl)-6-(hydroxymethyl)-3-methoxytetrahydro-2H-pyran-2-carboxamide] | 28.6
CO[C@@H]1[C@@H](n2cc(-c3cc(F)c(F)c(Cl)c3)nn2)[C@@H](O)[C@@H](CO)O[C@H]1C(=O)N(c1cc(Cl)cc(C#N)c1)[C@H]1CCC[C@@H]1O [Example 1.7.4, (2R,3R,4S,5R,6R)-4-(4-(3-chloro-4,5-difluorophenyl)-1H-1,2,3-triazol-1-yl)-N-(3-chloro-5-cyanophenyl)-5-hydroxy-N-((1S,2S)-2-hydroxycyclopentyl)-6-(hydroxymethyl)-3-methoxytetrahydro-2H-pyran-2-carboxamide] | 33.4

— patent publication US20230348442A1, “GALECTIN-3 INHIBITING 2-HYDROXYCYCLOALKANE-1-CARBAMOYL DERIVATIVES” (Idorsia Pharmaceuticals Ltd, priority 2020, published 2023)
